The NIST ThermoML archive (doi:10.1016/j.jct.2006.09.012)
Values joined by “and” are separate entries in the source; they are usually repeats but may differ in a detail not shown here. Equal entries are not always repeated.

Details: Gas, Buoyancy - hydrostatic balance with magnetic suspension - two sinkers

N#N [nitrogen]
Details	mass density
340.01 K, 11962 kPa	114.845 kg/m3 and 114.844 kg/m3 and 114.842 kg/m3
340.01 K, 15961 kPa	150.241 kg/m3 and 150.238 kg/m3 and 150.239 kg/m3
340.01 K, 15962 kPa	150.242 kg/m3 and 150.24 kg/m3
340.01 K, 20072 kPa	184.447 kg/m3 [middle of 5 runs]
340.01 K, 20073 kPa	184.453 kg/m3
340.01 K, 24069 kPa	215.463 kg/m3
340.01 K, 24070 kPa	215.467 kg/m3 and 215.465 kg/m3 and 215.466 kg/m3
340.01 K, 28607 kPa	247.989 kg/m3 and 247.99 kg/m3
340.01 K, 28608 kPa	247.996 kg/m3 and 247.999 kg/m3 and 247.993 kg/m3
340.01 K, 33718 kPa	281.379 kg/m3
340.01 K, 33719 kPa	281.38 kg/m3 and 281.384 kg/m3
340.01 K, 33720 kPa	281.389 kg/m3 and 281.386 kg/m3
359.99 K, 5385.3 kPa	49.7747 kg/m3
359.99 K, 5385.4 kPa	49.7738 kg/m3 and 49.7746 kg/m3
359.99 K, 5385.5 kPa	49.7747 kg/m3 and 49.7744 kg/m3
359.99 K, 11539 kPa	104.182 kg/m3
359.99 K, 23337 kPa	197.246 kg/m3
360 K, 11538 kPa	104.181 kg/m3 and 104.18 kg/m3
360 K, 11539 kPa	104.182 kg/m3 and 104.181 kg/m3
360 K, 23336 kPa	197.238 kg/m3 and 197.239 kg/m3 and 197.241 kg/m3
360 K, 23337 kPa	197.243 kg/m3
379.99 K, 5685.7 kPa	49.5887 kg/m3 [middle of 4 runs]
379.99 K, 5685.8 kPa	49.589 kg/m3 and 49.5891 kg/m3
379.99 K, 12228 kPa	103.776 kg/m3 and 103.778 kg/m3
380 K, 12228 kPa	103.775 kg/m3 and 103.776 kg/m3
380 K, 24868 kPa	196.492 kg/m3 and 196.493 kg/m3 and 196.491 kg/m3
380 K, 24869 kPa	196.497 kg/m3 and 196.496 kg/m3 and 196.492 kg/m3
399.97 K, 499.5 kPa	4.2016 kg/m3 and 4.2015 kg/m3 and 4.2014 kg/m3
399.97 K, 999 kPa	8.3914 kg/m3 and 8.3913 kg/m3 and 8.3912 kg/m3
399.97 K, 1998 kPa	16.7314 kg/m3 and 16.7313 kg/m3 and 16.7315 kg/m3
399.97 K, 3996 kPa	33.2413 kg/m3 and 33.241 kg/m3 and 33.2411 kg/m3
399.97 K, 5994.1 kPa	49.4948 kg/m3 and 49.4949 kg/m3 and 49.4947 kg/m3
399.99 K, 5983.6 kPa	49.4072 kg/m3 and 49.4075 kg/m3
399.99 K, 5983.7 kPa	49.4089 kg/m3 and 49.4079 kg/m3
399.99 K, 5983.8 kPa	49.4087 kg/m3 and 49.4092 kg/m3
399.99 K, 12911 kPa	103.383 kg/m3
399.99 K, 12912 kPa	103.387 kg/m3
400 K, 12911 kPa	103.385 kg/m3 and 103.384 kg/m3 and 103.383 kg/m3
400 K, 12912 kPa	103.388 kg/m3
400 K, 26381 kPa	195.763 kg/m3 and 195.766 kg/m3
400 K, 26382 kPa	195.77 kg/m3
400 K, 26383 kPa	195.774 kg/m3
419.99 K, 6278.6 kPa	49.2274 kg/m3 [middle of 5 runs]
419.99 K, 13587 kPa	103.001 kg/m3 and 103.002 kg/m3
420 K, 13587 kPa	103 kg/m3 and 103.001 kg/m3 and 103.002 kg/m3
420 K, 27876 kPa	195.057 kg/m3 and 195.058 kg/m3 and 195.06 kg/m3
420 K, 27877 kPa	195.065 kg/m3 and 195.064 kg/m3
420 K, 27878 kPa	195.07 kg/m3
439.98 K, 499.5 kPa	3.8187 kg/m3 [middle of 5 runs]
439.98 K, 999 kPa	7.6237 kg/m3 and 7.6236 kg/m3 and 7.6238 kg/m3
439.98 K, 1998 kPa	15.1913 kg/m3 and 15.1914 kg/m3
439.98 K, 3995.9 kPa	30.1496 kg/m3 [middle of 4 runs]
439.98 K, 5993.9 kPa	44.8532 kg/m3 [middle of 4 runs]
439.99 K, 6571 kPa	49.0492 kg/m3
439.99 K, 6571.1 kPa	49.0504 kg/m3 and 49.0497 kg/m3 and 49.05 kg/m3
440 K, 14255 kPa	102.622 kg/m3 [middle of 6 runs]
440 K, 29348 kPa	194.34 kg/m3 and 194.342 kg/m3 and 194.344 kg/m3
440 K, 29349 kPa	194.345 kg/m3 and 194.347 kg/m3 and 194.348 kg/m3
459.99 K, 6861.3 kPa	48.8758 kg/m3 and 48.8757 kg/m3
460 K, 6861.3 kPa	48.8757 kg/m3 and 48.8759 kg/m3
460 K, 6861.4 kPa	48.8764 kg/m3
460 K, 14917 kPa	102.251 kg/m3 [middle of 5 runs]
460 K, 14918 kPa	102.253 kg/m3
460 K, 30809 kPa	193.675 kg/m3
460 K, 30810 kPa	193.681 kg/m3 and 193.677 kg/m3 and 193.678 kg/m3
460 K, 30811 kPa	193.683 kg/m3
460 K, 30812 kPa	193.69 kg/m3
479.99 K, 7148.6 kPa	48.7024 kg/m3
479.99 K, 7148.7 kPa	48.7027 kg/m3
480 K, 499.5 kPa	3.4995 kg/m3 [middle of 5 runs]
480 K, 999 kPa	6.9854 kg/m3 [middle of 5 runs]
480 K, 1998 kPa	13.9143 kg/m3 [middle of 5 runs]
480 K, 3996 kPa	27.6012 kg/m3 and 27.6015 kg/m3 and 27.6009 kg/m3
480 K, 5994 kPa	41.0449 kg/m3 and 41.045 kg/m3
480 K, 5994.1 kPa	41.0449 kg/m3 and 41.0443 kg/m3 and 41.045 kg/m3
480 K, 7148.6 kPa	48.7016 kg/m3 and 48.7015 kg/m3
480 K, 7148.7 kPa	48.7027 kg/m3
480 K, 15572 kPa	101.884 kg/m3 [middle of 5 runs]
480 K, 15573 kPa	101.886 kg/m3
480 K, 32254 kPa	193.025 kg/m3
480 K, 32255 kPa	193.027 kg/m3 and 193.029 kg/m3
480 K, 32256 kPa	193.032 kg/m3 and 193.035 kg/m3
500 K, 7433.7 kPa	48.5307 kg/m3 and 48.5313 kg/m3
500 K, 7433.8 kPa	48.531 kg/m3 and 48.5323 kg/m3 and 48.5317 kg/m3
500 K, 7433.9 kPa	48.5314 kg/m3
500 K, 16220 kPa	101.517 kg/m3 and 101.518 kg/m3 and 101.519 kg/m3
500 K, 16221 kPa	101.519 kg/m3 and 101.521 kg/m3
500 K, 33681 kPa	192.377 kg/m3
500 K, 33682 kPa	192.38 kg/m3 and 192.382 kg/m3
500 K, 33683 kPa	192.384 kg/m3
500 K, 33684 kPa	192.389 kg/m3
500 K, 33686 kPa	192.396 kg/m3
